Test results from the supplement of paper PMC10331698.
± gives the standard deviation of the averaged measurements.

Assays:
Experiment in all cases: level (log10 ratio to DMSO vehicle control); higher = higher biomarker level / cell amount than vehicle control
Settings in all cases: in DMSO
[1] = compound: O=C(O)C(F)(F)C(F)(F)C(F)(F)C(F)(F)C(F)(F)C(F)(F)C(F)(F)C(F)(F)Cl [9-Chloro-perfluorononanoic acid]
Method: (§1)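 BioMAP Diversity Plus panel of 12 human primary cell co-culture systems (3C, 4H, LPS, SAg, BT, BF4T, BE3C, CASM3C, HDF3CGF, KF3CT, MyoF, Mphg). Compounds were added 1 h before stimulation and left for 24 h (MyoF 48 h; BT 72 h for soluble read-outs or 6 d for IgG). Biomarkers were read by ELISA, cytotoxicity by SRB, PBMC viability and proliferation by Alamar Blue. Each well value was divided by the mean of 8 DMSO control wells on the same plate and log10 transformed; duplicate blinded samples were tested at 4 concentrations.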

1H,1H-Heptafluorobutanol = compound: OCC(F)(F)C(F)(F)C(F)(F)F [1H,1H-Heptafluorobutanol]
Method: as §1

[2] = compound: C=C(C)C(=O)OCC(F)(F)C(F)(F)C(F)(F)C(F)(F)C(F)(F)C(F)(F)C(F)(F)F
Method: as §1

Perfluorohexanoic acid = compound: O=C(O)C(F)(F)C(F)(F)C(F)(F)C(F)(F)C(F)(F)F [Perfluorohexanoic acid]
Method: as §1

[3] = compound: O=S(=O)(O)C(F)(F)C(F)(F)C(F)(F)C(F)(F)C(F)(F)C(F)(F)C(F)(F)C(F)(F)F [Perfluorooctanesulfonic acid]
Method: as §1

[4] = compound: FC(F)(F)C(F)(F)C(F)(F)C(F)(F)C(F)(F)C(F)(F)C(F)(F)CCI [1-Iodo-1H,1H,2H,2H-perfluorononane]
Method: as §1

[5] = compound: O=P(O)(O)CCC(F)(F)C(F)(F)C(F)(F)C(F)(F)C(F)(F)C(F)(F)C(F)(F)C(F)(F)F [((Perfluorooctyl)ethyl)phosphonic acid]
Method: as §1

| Test System | level (log10) ([1]; 6700 nM) | level (log10) ([1]; 20000 nM) | level (log10) (1H,1H-Heptafluorobutanol; 6700 nM) | level (log10) (1H,1H-Heptafluorobutanol; 20000 nM) | level (log10) (1H,1H-Heptafluorobutanol; 60000 nM) | level (log10) ([2]; 6700 nM) | level (log10) ([2]; 20000 nM) | level (log10) (Perfluorohexanoic acid; 6700 nM) | level (log10) (Perfluorohexanoic acid; 20000 nM) | level (log10) (Perfluorohexanoic acid; 60000 nM) | level (log10) ([3]; 6700 nM) | level (log10) ([3]; 20000 nM) | level (log10) ([3]; 60000 nM) | level (log10) ([4]; 6700 nM) | level (log10) ([4]; 20000 nM) | level (log10) ([5]; 6700 nM) | level (log10) ([5]; 20000 nM) | level (log10) ([5]; 60000 nM) |
| --- | --- | --- | --- | --- | --- | --- | --- | --- | --- | --- | --- | --- | --- | --- | --- | --- | --- | --- |
| BE3C:CXCL9/MIG | -0.0015 ± 0.00071 | -0.047 | -0.001 | 0.0025 ± 0.0035 | 0.007 ± 0.0028 | 0.0015 ± 0.00071 | -0.0085 ± 0.0035 | 0.005 ± 0.0014 | 0 ± 0.0099 | 0.001 ± 0.0099 | 0.0105 ± 0.0078 | -0.011 ± 0.021 | -0.513 ± 0.32 | -0.0085 ± 0.0035 | -0.0015 ± 0.0092 | 0.0165 ± 0.0064 | 0.011 ± 0.0057 | 0.013 ± 0.021 |
| BE3C:CXCL10/IP-10 | -0.0545 ± 0.015 | -0.462 ± 0.011 | 0.0345 ± 0.023 | 0.0195 ± 0.035 | 0.0265 ± 0.032 | 0.0135 ± 0.018 | -0.004 ± 0.014 | 0.0095 ± 0.018 | 0.0125 ± 0.0092 | 0.0245 ± 0.011 | -0.0365 ± 0.013 | -0.478 ± 0.054 | -0.7725 ± 0.0035 | 0 ± 0.016 | 0.0025 ± 0.011 | -0.0055 ± 0.0064 | -0.001 ± 0.0099 | -0.0045 ± 0.0078 |
| BE3C:CXCL11/I-TAC | 0.0515 ± 0.005 | -0.161 ± 0.032 | 0.0065 ± 0.0035 | 0.0145 ± 0.023 | 0.0085 ± 0.023 | -0.0085 ± 0.016 | -0.0095 ± 0.0021 | 0.008 ± 0.014 | 0.0065 ± 0.0064 | 0.027 ± 0.0042 | -0.0085 ± 0.00071 | -0.0735 ± 0.028 | -0.555 ± 0.15 | -0.004 ± 0.0057 | -0.001 ± 0.0042 | -0.0285 ± 0.011 | -0.0225 ± 0.0064 | -0.0205 ± 0.0035 |
| BE3C:EGFR | -0.004 ± 0.0014 | -0.101 ± 0.015 | 0.009 ± 0.014 | 0.0135 ± 0.022 | 0.016 ± 0.027 | -0.0175 ± 0.011 | -0.0295 ± 0.011 | 0.003 ± 0.0014 | -0.005 ± 0.0028 | 0.0025 ± 0.015 | 0.0025 ± 0.023 | -0.125 ± 0.059 | -0.159 ± 0.12 | 0.005 ± 0.014 | -0.008 ± 0.02 | -0.025 ± 0.014 | -0.0355 ± 0.025 | -0.0345 ± 0.033 |
| BE3C:HLA-DR | -0.0575 ± 0.025 | -0.445 ± 0.052 | -0.0035 ± 0.0021 | 0.0105 ± 0.00071 | 0.02 ± 0.03 | 0.008 ± 0.0085 | 0.001 ± 0.013 | -0.0025 ± 0.0021 | -0.011 ± 0.0028 | -0.012 ± 0.0099 | -0.0155 ± 0.016 | -0.189 ± 0.014 | -0.409 ± 0.1 | -0.0065 ± 0.0035 | -0.0225 ± 0.0092 | -0.025 ± 0.0099 | -0.031 ± 0.013 | -0.0075 ± 0.013 |
| BE3C:IL-1alpha | 0.023 ± 0.017 | -0.0765 ± 0.026 | 0.003 ± 0.011 | -0.0095 ± 0.022 | -0.0035 ± 0.018 | -0.008 ± 0.013 | 0.0405 ± 0.042 | 0.005 ± 0.0071 | -0.0115 ± 0.0035 | -0.002 ± 0.0042 | 0.0315 ± 0.023 | 0.0055 ± 0.016 | -0.237 ± 0.2 | -0.0075 ± 0.0078 | 0.0075 ± 0.026 | -0.017 ± 0.016 | -0.019 ± 0.025 | 0.0085 ± 0.056 |
| BF4T:CCL2/MCP-1 | -0.034 ± 0.028 | -0.0785 ± 0.044 | -0.002 ± 0.018 | 0.003 ± 0.057 | -0.0135 ± 0.0021 | -0.008 ± 0.035 | 0.0195 ± 0.013 | -0.0045 ± 0.0021 | -0.012 ± 0.024 | -0.0015 ± 0.052 | 0.0145 ± 0.005 | 0.0095 ± 0.035 | -0.0565 ± 0.21 | -0.0135 ± 0.015 | -0.0245 ± 0.066 | 0.0125 ± 0.019 | 0.0295 ± 0.026 | 0.061 ± 0.02 |
| BF4T:CCL26/Eotaxin-3 | -0.144 ± 0.016 | -0.27 ± 0.014 | 0.0275 ± 0.04 | 0.0405 ± 0.022 | 0.0315 ± 0.013 | 0.002 ± 0.055 | -0.0155 ± 0.042 | 0.0135 ± 0.015 | 0.005 ± 0.024 | 0.0115 ± 0.011 | -0.0595 ± 0.026 | -0.155 ± 0.0085 | -0.192 ± 0.097 | -0.0075 ± 0.0021 | -0.061 ± 0.0099 | -0.084 ± 0.0099 | -0.157 ± 0.018 | -0.14 ± 0.056 |
| BF4T:CD54/ICAM-1 | -0.0085 ± 0.0021 | -0.0355 ± 0.0064 | 0.0035 ± 0.0021 | 0.008 ± 0.0085 | 0.001 ± 0.013 | -0.0015 ± 0.016 | -0.0075 ± 0.0064 | -0.011 ± 0.0014 | -0.0135 ± 0.0064 | -0.0005 ± 0.0021 | -0.0065 ± 0.019 | -0.0115 ± 0.028 | -0.018 ± 0.014 | -0.007 ± 0.018 | -0.0345 ± 0.0064 | 0.0035 ± 0.029 | 0.001 ± 0.031 | -0.0035 ± 0.046 |
| BF4T:CD90 | -0.034 ± 0.013 | -0.0285 ± 0.005 | -0.0035 ± 0.012 | -0.0045 ± 0.021 | -0.0045 ± 0.0035 | -0.0135 ± 0.0064 | -0.011 ± 0.0085 | -0.0045 ± 0.011 | -0.0005 ± 0.011 | -0.007 ± 0.011 | -0.0015 ± 0.011 | 0.005 ± 0.0014 | 0.0135 ± 0.0021 | -0.0245 ± 0.021 | -0.0345 ± 0.0021 | 0.001 ± 0.0099 | 0.0035 ± 0.005 | 0.014 ± 0.021 |
| BF4T:CD106/VCAM-1 | -0.0485 ± 0.005 | -0.141 ± 0.011 | -0.0155 ± 0.0021 | -0.0105 ± 0.019 | -0.005 ± 0.0071 | 0.015 ± 0.014 | 0.0105 ± 0.05 | 0.0025 ± 0.042 | -0.0145 ± 0.0078 | -0.017 ± 0.017 | -0.0065 ± 0.0021 | -0.0155 ± 0.012 | -0.016 ± 0.03 | -0.027 ± 0.0085 | -0.061 ± 0.014 | -0.009 ± 0.018 | 0.0185 ± 0.019 | 0.0205 ± 0.052 |
| BF4T:CXCL8/IL-8 | 0.112 ± 0.042 | 0.0875 ± 0.015 | 0.019 ± 0.071 | 0.03 ± 0.071 | 0.034 ± 0.089 | 0.011 ± 0.013 | 0.007 ± 0.0099 | -0.0055 ± 0.025 | 0.0155 ± 0.0078 | 0.0415 ± 0.042 | -0.0155 ± 0.00071 | -0.032 ± 0.014 | -0.0185 ± 0.059 | -0.0015 ± 0.018 | 0.011 ± 0.025 | 0.0075 ± 0.012 | 0.026 ± 0.017 | 0.0325 ± 0.0092 |
| BF4T:IL-1alpha | 0.0205 ± 0.0035 | -0.023 ± 0.011 | -0.0125 ± 0.0092 | -0.016 | -0.007 ± 0.0042 | -0.0175 ± 0.025 | 0.006 ± 0.0099 | -0.001 ± 0.0042 | -0.0035 ± 0.012 | 0.007 ± 0.0042 | 0.01 ± 0.011 | 0.002 ± 0.0014 | -0.002 ± 0.0099 | -0.011 ± 0.0042 | 0.033 ± 0.031 | -0.0165 ± 0.015 | -0.001 ± 0.0028 | 0.015 ± 0.02 |
| BF4T:Keratin 8/18 | -0.004 ± 0.0057 | -0.0105 ± 0.0035 | -0.036 ± 0.065 | -0.025 ± 0.037 | -0.019 ± 0.037 | 0.014 ± 0.0028 | -0.003 ± 0.0014 | 0.017 ± 0.028 | 0.0165 ± 0.015 | -0.006 ± 0.037 | -0.009 ± 0.0014 | -0.0015 ± 0.0021 | 0.0135 ± 0.021 | -0.016 ± 0.052 | -0.0135 ± 0.0092 | -0.016 ± 0.017 | -0.0195 ± 0.005 | -0.0155 ± 0.042 |
| BF4T:MMP-1 | -0.0115 ± 0.0078 | 0.0245 ± 0.0064 | 0.002 ± 0.013 | 0.0085 ± 0.00071 | -0.002 ± 0.018 | -0.0075 ± 0.015 | 0.016 ± 0.011 | 0.0005 ± 0.015 | -0.009 ± 0.0071 | -0.0005 ± 0.0078 | 0.02 ± 0.0014 | 0.029 ± 0.013 | 0.039 ± 0.047 | 0.001 ± 0.035 | 0.016 ± 0.033 | -0.005 ± 0.0014 | 0.0075 ± 0.022 | 0.007 ± 0.05 |
| BF4T:MMP-3 | 0.0535 ± 0.023 | 0.118 ± 0.035 | 0.004 ± 0.016 | -0.0135 ± 0.012 | 0.0055 ± 0.04 | 0.002 ± 0.023 | -0.007 ± 0.018 | 0.003 ± 0.024 | -0.0095 ± 0.00071 | 0.0295 ± 0.043 | 0.012 ± 0.035 | 0.0625 ± 0.012 | 0.059 ± 0.089 | 0.0185 ± 0.013 | 0.011 ± 0.0014 | -0.013 ± 0.02 | 0.009 ± 0.011 | 0.014 ± 0.079 |
